The results in this text go back to ChEMBL document CHEMBL3232827, “Synthesis of substituted pyrimidines as corticotropin releasing factor (CRF) receptor ligands” (Eur J Med Chem, 2014).

As usually defined, the IC50 is the midpoint of a concentration-inhibition curve. Low readings indicate greater potency, high ones weaker potency. What is called inhibition is the relative decrease from the control value, in per cent.

What all share (type): cell membranes
The target in test [1] is T1, Corticotropin-releasing factor receptor 1 (Homo sapiens, UniProt P34998).
T1 sequence (P34998 whole entry): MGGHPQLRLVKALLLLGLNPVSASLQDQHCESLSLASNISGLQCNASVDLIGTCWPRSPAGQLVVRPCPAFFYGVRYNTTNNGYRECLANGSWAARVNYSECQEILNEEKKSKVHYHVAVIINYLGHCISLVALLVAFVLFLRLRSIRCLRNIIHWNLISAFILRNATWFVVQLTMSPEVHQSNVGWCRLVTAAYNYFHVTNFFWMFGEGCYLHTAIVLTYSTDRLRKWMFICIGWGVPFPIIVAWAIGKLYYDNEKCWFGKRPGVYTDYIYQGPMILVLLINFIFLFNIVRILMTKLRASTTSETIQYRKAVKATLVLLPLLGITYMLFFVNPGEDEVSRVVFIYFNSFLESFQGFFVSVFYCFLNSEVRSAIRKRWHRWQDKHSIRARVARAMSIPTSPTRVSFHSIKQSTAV
The test can be described thus: (§1) Displacement of [125I]Tyr0sauvagine from human CRF1 receptor expressed in HEK293 cell membrane after 120 mins by gamma scintillation counting analysis.

The target of test [2] is T2, Corticotropin-releasing factor receptor 1 (Homo sapiens) (UniProt P34998).
T2 sequence (whole entry): T1 sequence (P34998 whole entry)
The test can be described thus: Displacement of [125I]Tyr0sauvagine from human CRF1 receptor expressed in HEK293 cell membrane at 500 nM after 120 mins by gamma scintillation counting analysis. On the technique in general: Loss of bound radioactivity is the signal in a displacement assay; it reports binding, not function.

For test [3], the target named is T2, Corticotropin-releasing factor receptor 1 (Homo sapiens). The test is described as §1.

Some results are limits rather than exact numbers.

Molecule `CCCCN(CC)c1nc(C)nc2c1c(C)c(C)n2-c1c(C)cc(C)cc1C` [ANTALARMIN] showed an IC50 in test [1] of 18.6 nM.

Regarding `COCCN(CCOC)c1nc(C)nc(Nc2ccc(C(C)C)cc2Br)c1SC`, the inhibition in test [2] is below 50%.

`CCSc1c(Nc2ccc(C(C)C)cc2Br)nc(C)nc1N(CCOC)CCOC` showed an inhibition in test [2] below 50%.

Turning to `CCCN(CCC)c1nc(C)nc(Nc2ccc(C(C)C)cc2Br)c1SC`, the inhibition in test [2] is below 50%.

`COCCN(CCOC)c1nc(C)nc(Nc2c(C)cc(C)cc2C)c1SC`: the inhibition result in test [3] was “Dose-dependent effect”. This molecule also gave an IC50 in test [1] of 275 nM.

Turning to `CCCN(CCC)c1nc(C)nc(Nc2c(C)cc(C)cc2C)c1SCC`, the inhibition result in test [3] was “Dose-dependent effect”. For the same molecule, the IC50 in test [1] was 537 nM.

On to `CCCCN(CC)c1ncnc(Nc2c(C)cc(C)cc2C)c1SC`, for which the inhibition in test [2] was below 50%.

In test [2], `CCCCN(CC)c1nc(C)nc(Nc2ccc(C(C)C)cc2Br)c1SCC` came in with an inhibition below 50%.

On to `CCCN(CC1CC1)c1nc(C)nc(Nc2c(C)cc(C)cc2C)c1SCC`, for which the inhibition result in test [3] is “Dose-dependent effect”. Also, the IC50 in test [1] was 245 nM.

On to `CCCN(CCC)c1ncnc(Nc2c(C)cc(C)cc2C)c1SC`, for which, in test [2], the inhibition is below 50%.

The molecule `CCSc1c(Nc2c(C)cc(C)cc2C)nc(C)nc1N(CC)CC` returned an inhibition in test [2] below 50%.

Take `CCCCN(CC)c1ncnc(Nc2c(C)cc(C)cc2C)c1SCC`: the inhibition in test [2] was below 50%.

Regarding `CCCN(CC1CC1)c1nc(C)nc(Nc2ccc(C(C)C)cc2Br)c1SCC`, in test [2], the inhibition was below 50%.

`CCN(CC)c1nc(C)nc(Nc2ccc(C(C)C)cc2Br)c1SC` yielded an inhibition in test [2] below 50%.

As for `CCCN(CCC)c1nc(C)nc(Nc2ccc(C(C)C)cc2Br)c1SCC`, the inhibition in test [2] is below 50%.

Turning to `CCCN(CCC)c1nc(C)nc(Nc2c(C)cc(C)cc2C)c1SC`, the inhibition in test [2] is below 50%.

`COCCN(CCOC)c1ncnc(Nc2c(C)cc(C)cc2C)c1SC` showed an inhibition in test [2] below 50%.

With `CCSc1c(Nc2c(C)cc(C)cc2C)nc(C)nc1N(CCOC)CCOC`, the inhibition entry in test [3] was “Dose-dependent effect”. This molecule showed an IC50 in test [1] of 589 nM.

The molecule `CCCN(CC1CC1)c1nc(C)nc(Nc2c(C)cc(C)cc2C)c1SC` had an inhibition in test [2] below 50%.

For the molecule `CCCCN(CC)c1nc(C)nc(Nc2c(C)cc(C)cc2C)c1SC`, in test [2], the inhibition was below 50%.

Turning to `CCCCN(CC)c1nc(C)nc(Nc2ccc(C(C)C)cc2Br)c1SC`, in test [2], the inhibition is below 50%.

Turning to `CCN(CC)c1nc(C)nc(Nc2c(C)cc(C)cc2C)c1SC`, the inhibition in test [2] is below 50%.

Turning to `CCCN(CCC)c1ncnc(Nc2c(C)cc(C)cc2C)c1SCC`, in test [2], the inhibition is below 50%.

`CCSc1c(Nc2c(C)cc(C)cc2C)ncnc1N(CC)CC`: the inhibition in test [2] is below 50%.

Molecule `CCCN(CC1CC1)c1nc(C)nc(Nc2ccc(C(C)C)cc2Br)c1SC` yielded an inhibition in test [2] below 50%.

In turn, `CCSc1c(Nc2c(C)cc(C)cc2C)ncnc1N(CCOC)CCOC` gave an inhibition in test [2] below 50%.

`CCCN(CC1CC1)c1ncnc(Nc2c(C)cc(C)cc2C)c1SC`: the inhibition in test [2] is below 50%.

In test [2], `CCCCN(CC)c1nc(C)nc(Nc2c(C)cc(C)cc2C)c1SCC` registered an inhibition below 50%.

For the molecule `CCSc1c(Nc2ccc(C(C)C)cc2Br)nc(C)nc1N(CC)CC`, the inhibition in test [2] was below 50%.
